Data taken from US11760984B2, “CRISPR protein inhibitors” (THE BROAD INSTITUTE, INC., priority 2017, dated 2023).
“Also recorded” adds a separate entry of the source.

Experiments:
[1] = target: T1, dCas9-cytidine deaminase conjugate (BE3) (UniProt P14739+P38483+Q99ZW2, D10A); assay: BE3 base-editing of EMX1 gene in HEK293T cells; format: cell-based; settings: 1.25-20 μM, 72 h
T1 construct: made in house; host or cells: E. coli BL21 Star (DE3); purified protein:sgRNA complex lipofected into HEK293T cells
Description: Protein transfection of base editor BE3 into HEK293T cells. HEK293T cells were seeded on 48-well BioCoat poly-D-lysine plates (Corning) in 250 μL of antibiotic-free medium and transfected at ˜70% confluency. Prior to protein transfection, cells were incubated with 2 μL of DMSO-suspended BRD7087 or BRD5779 at the indicated concentration for 2-3 hours. BE3 protein was incubated with 1.1× molar excess of EMX1-targeting sgRNA at a final concentration ratio of 200 nM. 220 nM (based on a total well volume of 275 μL). The complex was mixed with 0.2 μL of compound for five minutes, incubated with 1.5 μL Lipofectamine 2000 (Thermo Fisher) and transfected according to the manufacturer's protocol plasmid delivery. […]
Purifications and sequencing of genomic DNA. […] Barcoded samples were pooled and purified by gel extraction (Qiagen) before quantification using the Qubit dsDNA HS Kit (Thermo Fisher) and qPCR (KAPA BioSystems) according to the manufacturer's instructions. Sequencing of pooled samples was performed using a single-end read from 260 to 300 bases on the MiSeq (Illumina) according to the manufacturer's instructions.
Analysis of base-edited sequences. Nucleotide frequencies were analyzed using a previously described MATLAB script 5. Briefly, the reads were aligned to the reference sequence via the Smith-Waterman algorithm. […]

[2] = target: SpCas9 (Streptococcus pyogenes serotype M1, UniProt Q99ZW2); assay: mKate2 expression (knockdown) assay; format: cell-based; settings: for activity in mKate2 assay: HEK293 cells, 1.5-5 μM, 24 h
Description: mKate2 expression assay. Approximately 8,000 cells/well were plated in a 96-well format 24 h before transiently transfected with 100 ng of either CgRNA (Addgene Plasmid #64955) or T1gRNA (Addgene Plasmid #62717) plasmids using lipofectamine 2000 (Life Technologies). Transfected cells were allowed to grow in the indicated amount of compound or DMSO for 24 h. Cells were then fixed using 4% paraformaldehyde and imaged with the HCS NuclearMask™ Blue Stain (Life Technologies) as the nuclear counter-staining agent. Imaging was performed with an IXM 137204 ImageXpress Automated High Content Microscope (Molecular Devices) at 20× magnification under two excitation channels (blue and red) with 9 acquiring sites per well. Images were analyzed in the MetaXpress software to determine the % mKate2 positive cells and the % NHEJ was calculated following a reported protocol and plotted using GraphPad Prism 6. The Z′-value was calculated following the formula: […]

SpCas9, sequence (Q99ZW2 whole entry): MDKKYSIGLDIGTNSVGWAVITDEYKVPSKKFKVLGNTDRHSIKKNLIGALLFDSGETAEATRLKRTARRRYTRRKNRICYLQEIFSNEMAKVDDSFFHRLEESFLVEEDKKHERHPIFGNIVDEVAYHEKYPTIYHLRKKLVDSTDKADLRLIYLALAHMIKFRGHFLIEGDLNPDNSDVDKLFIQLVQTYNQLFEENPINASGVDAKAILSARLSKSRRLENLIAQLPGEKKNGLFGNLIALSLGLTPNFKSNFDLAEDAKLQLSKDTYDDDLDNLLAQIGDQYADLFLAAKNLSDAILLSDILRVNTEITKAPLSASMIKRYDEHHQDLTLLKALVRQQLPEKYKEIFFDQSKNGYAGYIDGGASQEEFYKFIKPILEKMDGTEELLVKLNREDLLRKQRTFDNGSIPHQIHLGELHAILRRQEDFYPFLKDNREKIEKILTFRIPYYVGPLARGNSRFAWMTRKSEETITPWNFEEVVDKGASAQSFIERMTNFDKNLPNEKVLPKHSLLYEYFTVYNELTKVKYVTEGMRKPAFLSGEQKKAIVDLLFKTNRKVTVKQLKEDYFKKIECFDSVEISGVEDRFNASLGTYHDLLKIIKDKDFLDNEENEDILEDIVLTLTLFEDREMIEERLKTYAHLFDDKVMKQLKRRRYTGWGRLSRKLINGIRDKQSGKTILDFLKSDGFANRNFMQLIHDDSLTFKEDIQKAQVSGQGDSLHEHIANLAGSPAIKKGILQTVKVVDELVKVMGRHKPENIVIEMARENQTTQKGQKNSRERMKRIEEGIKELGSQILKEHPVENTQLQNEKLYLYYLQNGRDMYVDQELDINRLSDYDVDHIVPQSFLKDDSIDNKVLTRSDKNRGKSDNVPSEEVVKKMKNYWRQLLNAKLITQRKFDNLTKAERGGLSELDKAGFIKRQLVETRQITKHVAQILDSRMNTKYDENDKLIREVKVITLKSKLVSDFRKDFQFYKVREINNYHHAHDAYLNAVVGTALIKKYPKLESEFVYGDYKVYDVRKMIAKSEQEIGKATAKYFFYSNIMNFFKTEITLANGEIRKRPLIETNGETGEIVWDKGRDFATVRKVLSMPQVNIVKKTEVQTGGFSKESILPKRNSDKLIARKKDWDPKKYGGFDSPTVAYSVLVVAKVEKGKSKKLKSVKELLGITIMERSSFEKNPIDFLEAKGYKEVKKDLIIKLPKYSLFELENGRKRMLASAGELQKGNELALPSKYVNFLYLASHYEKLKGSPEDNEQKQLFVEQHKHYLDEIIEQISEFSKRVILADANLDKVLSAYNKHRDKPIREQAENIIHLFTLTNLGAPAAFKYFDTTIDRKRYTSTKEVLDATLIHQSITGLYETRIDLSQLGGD

| SMILES | inhibition of BE3-mediated base-editing (C→T conversion, words) [1] | IC50 [2] [µM] | activity in mKate2 assay [2] |
| --- | --- | --- | --- |
| OC[C@H]1Nc2ccc(-c3cccc(F)c3)cc2[C@H]2[C@@H]1CCN2Cc1ccncc1 [BRD7087, ((3aR,4S,9bR)-8-(3-Fluorophenyl)-1-(pyridin-4-ylmethyl)-2,3,3a,4,5,9b-hexahydro-1H-pyrrolo[3,2-c]quinolin-4-yl)methanol] | efficient and dose-dependent inhibition | ~5 | Dose-dependent recovery of the mKate2 signal; also recorded: more active than BRD5779 |
| COc1ccc(-c2ccc3c(c2)[C@H]2[C@H](CCN2Cc2ccncc2)[C@@H](CO)N3)cc1 [BRD5779, ((3aR,4S,9bR)-8-(4-Methoxyphenyl)-1-(pyridin-4-ylmethyl)-2,3,3a,4,5,9b-hexahydro-1H-pyrrolo[3,2-c]quinolin-4-yl)methanol] | efficient and dose-dependent inhibition | – | Dose-dependent recovery of the mKate2 signal |
